Toxic doses and inconclusive results are not listed. Rule as the data show it: active = T/C of 150% or more; inactive = T/C below 125%.
Test system: L1210 leukemia ip in BDF1 mice, survival T/C
Assay: NCI In Vivo Anticancer Drug Screen. Data for tumor model L1210 Leukemia (intraperitoneal) in B6D2F1 (BDF1) mice
Details: endpoint: mean survival time, higher = longer survival
Method in brief: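 Transplanted-tumor mice were given test agent; controls received vehicle only. Survival readings from the two groups were divided (treated over control).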

[1] = dose: 50.0 mg/kg/injection, schedule: Q04DX002 (ip), vehicle: Klucel (hydroxypropylcellulose) (HPC)
[2] = dose: 100.0 mg/kg/injection, schedule: Q04DX002 (ip), vehicle: Klucel (hydroxypropylcellulose) (HPC)
[3] = dose: 200.0 mg/kg/injection, schedule: Q04DX002 (ip), vehicle: Klucel (hydroxypropylcellulose) (HPC)
[4] = dose: 100.0 mg/kg/injection, schedule: Q01DX001 (ip), vehicle: saline
[5] = dose: 200.0 mg/kg/injection, schedule: Q01DX001 (ip), vehicle: saline
[6] = dose: 400.0 mg/kg/injection, schedule: Q01DX001 (ip), vehicle: saline
[7] = dose: 100.0 mg/kg/injection, schedule: Q04DX003 (ip), vehicle: Klucel (hydroxypropylcellulose) (HPC)
[8] = dose: 200.0 mg/kg/injection, schedule: Q04DX003 (ip), vehicle: Klucel (hydroxypropylcellulose) (HPC)
[9] = dose: 400.0 mg/kg/injection, schedule: Q04DX003 (ip), vehicle: Klucel (hydroxypropylcellulose) (HPC)
[10] = dose: 100.0 mg/kg/injection, schedule: Q01DX009 (ip), vehicle: saline
[11] = dose: 200.0 mg/kg/injection, schedule: Q01DX009 (ip), vehicle: saline
[12] = dose: 400.0 mg/kg/injection, schedule: Q01DX009 (ip), vehicle: saline
[13] = dose: 100.0 mg/kg/injection, schedule: Q01DX001 (ip), vehicle: saline with Tween-80
[14] = dose: 100.0 mg/kg/injection, schedule: Q01DX001 (ip), vehicle: carboxymethylcellulose (CMC)
[15] = dose: 100.0 mg/kg/injection, schedule: Q04DX003 (ip), vehicle: saline
[16] = dose: 200.0 mg/kg/injection, schedule: Q01DX001 (ip), vehicle: carboxymethylcellulose (CMC)
[17] = dose: 200.0 mg/kg/injection, schedule: Q04DX003 (ip), vehicle: saline
[18] = dose: 400.0 mg/kg/injection, schedule: Q01DX001 (ip), vehicle: carboxymethylcellulose (CMC)
[19] = dose: 400.0 mg/kg/injection, schedule: Q04DX003 (ip), vehicle: saline

Measured: T/C

CN=C(N)N(C)/N=C(C)\C=N\N(C)C(N)=NC
inactive: dose: 15.0 mg/kg/injection, schedule: Q01DX Z (ip), vehicle: carboxymethylcellulose (CMC) 98 % of control | dose: 30.0 mg/kg/injection, schedule: Q01DX Z (ip), vehicle: carboxymethylcellulose (CMC) 96 % of control | dose: 60.0 mg/kg/injection, schedule: Q01DX Z (ip), vehicle: carboxymethylcellulose (CMC) 101 % of control | dose: 120.0 mg/kg/injection, schedule: Q01DX Z (ip), vehicle: carboxymethylcellulose (CMC) 113 % of control | dose: 240.0 mg/kg/injection, schedule: Q01DX Z (oral), vehicle: carboxymethylcellulose (CMC) 104 % of control | dose: 480.0 mg/kg/injection, schedule: Q01DX Z (oral), vehicle: carboxymethylcellulose (CMC) 104 % of control

CCCCCCCCCCC(=O)N1CCCCCC1
inactive: [1] 100 % of control | [2] 100 % of control | [3] 95 % of control

O=C(COc1ccc(Cl)cc1Cl)Nc1cccnc1
inactive: dose: 100.0 mg/kg/injection, schedule: Q01DX001 (ip), vehicle: Klucel (hydroxypropylcellulose) (HPC) 93 % of control | dose: 100.0 mg/kg/injection, schedule: Q04DX003 (ip), vehicle: saline with Tween-80 94 % of control | dose: 200.0 mg/kg/injection, schedule: Q01DX001 (ip), vehicle: Klucel (hydroxypropylcellulose) (HPC) 89 % of control | dose: 200.0 mg/kg/injection, schedule: Q04DX003 (ip), vehicle: saline with Tween-80 94 % of control | dose: 400.0 mg/kg/injection, schedule: Q01DX001 (ip), vehicle: Klucel (hydroxypropylcellulose) (HPC) 96 % of control

O=C(Nc1cccc(Cl)c1)OCCN(CCOC(=O)Nc1cccc(Cl)c1)Cc1ccccc1
inactive: [4] 106 % of control | [5] 95 % of control | [6] 97 % of control

N#Cc1nc2c3ccccc3c3ccccc3c2nc1C#N
inactive: dose: 75.0 mg/kg/injection, schedule: Q01DX009 (ip), vehicle: other 90 % of control | dose: 300.0 mg/kg/injection, schedule: Q01DX009 (ip), vehicle: other 104 % of control

O=C(O)C12CCC1(Cl)CC2 (stereo unspecified)
inactive: [1] 104 % of control | [2] 97 % of control | [3] 108 % of control

COc1ccc(/C=C(\C#N)c2ccc(OC)cc2)cc1
inactive: dose: 100.0 mg/kg/injection, schedule: Q01DX009 (ip), vehicle: Klucel (hydroxypropylcellulose) (HPC) 96 % of control | [7] 98 % of control | dose: 200.0 mg/kg/injection, schedule: Q01DX009 (ip), vehicle: Klucel (hydroxypropylcellulose) (HPC) 101 % of control | [8] 91 % of control | dose: 400.0 mg/kg/injection, schedule: Q01DX009 (ip), vehicle: Klucel (hydroxypropylcellulose) (HPC) 96 % of control | [9] 93 % of control

CC1(C)/C(=C\C(=O)O)C2CCC1C2 (stereo unspecified)
inactive: [4] 103 % of control | [10] 91 % of control | dose: 100.0 mg/kg/injection, schedule: Q04DX003 (ip), vehicle: acetone 106 % of control | [5] 97 % of control | [11] 90 % of control | dose: 200.0 mg/kg/injection, schedule: Q04DX003 (ip), vehicle: acetone 93 % of control | [6] 105 % of control | [12] 98 % of control | dose: 400.0 mg/kg/injection, schedule: Q04DX003 (ip), vehicle: acetone 89 % of control

CN(N=O)C(=O)NC1C(CO)OC(n2cnc3c(N)ncnc32)C1O (stereo unspecified)
inactive: dose: 13.0 mg/kg/injection, schedule: Q01DX001 (ip), vehicle: saline with Tween-80 104 % of control | dose: 20.0 mg/kg/injection, schedule: Q01DX001 (ip), vehicle: saline with Tween-80 106 % of control | dose: 30.0 mg/kg/injection, schedule: Q01DX001 (ip), vehicle: saline with Tween-80 106 % of control | dose: 44.0 mg/kg/injection, schedule: Q01DX001 (ip), vehicle: saline with Tween-80 116 % of control | dose: 67.0 mg/kg/injection, schedule: Q01DX001 (ip), vehicle: saline with Tween-80 117 % of control | [13] 123 % of control | dose: 150.0 mg/kg/injection, schedule: Q01DX001 (ip), vehicle: saline with Tween-80 117 % of control

CC(CCC(=O)O)(c1cc(Cl)c(O)c(Cl)c1)c1cc(Cl)c(O)c(Cl)c1
inactive: dose: 100.0 mg/kg/injection, schedule: Q01DX009 (ip), vehicle: gum acacia 95 % of control | dose: 100.0 mg/kg/injection, schedule: Q04DX003 (ip), vehicle: gum acacia 100 % of control | dose: 200.0 mg/kg/injection, schedule: Q01DX009 (ip), vehicle: gum acacia 103 % of control | dose: 200.0 mg/kg/injection, schedule: Q04DX003 (ip), vehicle: gum acacia 92 % of control | dose: 400.0 mg/kg/injection, schedule: Q04DX003 (ip), vehicle: gum acacia 96 % of control

O=S(=O)([O-])CC[n+]1ccc(-c2ccccc2)o1
inactive: [14] 94 % of control | [15] 110 % of control | [16] 97 % of control | [17] 103 % of control | [18] 97 % of control | [19] 118 % of control

CC1=CC(C)(C)Nc2ccccc21
inactive: [10] 118 % of control | [15] 106 % of control | [11] 103 % of control | [17] 101 % of control | [12] 116 % of control | [19] 91 % of control

CCCCNc1ccc(C(=O)OCCNC2CCCCC2)cc1
inactive: dose: 75.0 mg/kg/injection, schedule: Q01DX001 (ip), vehicle: saline 100 % of control | dose: 150.0 mg/kg/injection, schedule: Q01DX001 (ip), vehicle: saline 96 % of control

O=P1(Nc2ccccc2)OCCCN1Cc1ccccc1Cl (stereo unspecified)
inactive: dose: 50.0 mg/kg/injection, schedule: Q01DX001 (ip), vehicle: carboxymethylcellulose (CMC) 98 % of control | [14] 98 % of control | [16] 98 % of control | [18] 93 % of control

O=C1c2ccccc2C(=O)C1c1ccccc1
inactive: [7] 102 % of control | [8] 104 % of control | [9] 106 % of control

CCCCCCCCCCCCCCCCC1CC2CCCCC2C1 (stereo unspecified)
inactive: [13] 100 % of control | dose: 200.0 mg/kg/injection, schedule: Q01DX001 (ip), vehicle: saline with Tween-80 93 % of control | dose: 400.0 mg/kg/injection, schedule: Q01DX001 (ip), vehicle: saline with Tween-80 94 % of control

Cc1cc(C(=O)O)c(C)[nH]1
inactive: dose: 25.0 mg/kg/injection, schedule: Q04DX003 (ip), vehicle: Klucel (hydroxypropylcellulose) (HPC) 105 % of control | dose: 50.0 mg/kg/injection, schedule: Q04DX003 (ip), vehicle: Klucel (hydroxypropylcellulose) (HPC) 100 % of control | dose: 75.0 mg/kg/injection, schedule: Q04DX003 (ip), vehicle: Klucel (hydroxypropylcellulose) (HPC) 101 % of control | [7] 93 % of control | [8] 95 % of control | [9] 101 % of control

c1cc(C[N+]23CN4CN(CN(C4)C2)C3)cs1
inactive: dose: 25.0 mg/kg/injection, schedule: Q04DX003 (ip), vehicle: saline 93 % of control | dose: 50.0 mg/kg/injection, schedule: Q04DX003 (ip), vehicle: saline 95 % of control

From PubChem BioAssay AID248 (DTP/NCI, 2004)
